# Assay results taken from ChEMBL document CHEMBL5120970, “Cryptic Epoxytiglianes from the Kernels of the Blushwood Tree (Fontainea picrosperma)” (J Nat Prod, 2022).
# Key:
# K562 = experiment: Cytotoxicity against PKC sensitive human K562 cells assessed as inhibition of cell growth measured after 7 days by Cell Titer Aqueous96 one solution reagent assay; assay type: functional, cell-based; settings: K562, 168 h
# Neutrophil = experiment: Induction of ROS production in human polymorphonuclear neutrophils incubated for 10 mins by DHE staining based fluorescence assay; assay type: functional, cell-based
Structure (SMILES),IC50 (K562),EC50 (Neutrophil)
C/C=C(\C)C(=O)O[C@@H]1[C@@H](C)[C@@]2(O)[C@H]([C@@H]3C(C)(C)[C@]13OC(=O)[C@@H](C)CC)[C@@H]1O[C@]1(COC(=O)CCCCCCC/C=C\C/C=C\CCCCC)[C@@H](O)[C@]1(O)C(=O)C(C)=C[C@H]12,124 nM,> 3630 nM
C/C=C(\C)C(=O)O[C@@H]1[C@@H](C)[C@@]2(O)[C@H]([C@@H]3C(C)(C)[C@]13OC(=O)[C@@H](C)CC)[C@@H]1O[C@]1(CO)[C@@H](O)[C@]1(O)C(=O)C(C)=C[C@H]12 [TIGILANOL TIGLATE],11.9 nM,125 nM
